The test system of the assay is T1, TvL.
T1 construct: gene LCC2
To be noted: read-out: KMapp / Free; free enzyme; assay as for activity: 50 mM citric/phosphate buffer pH 4, 420 nm; unit not in table grid, µM. From the text:
ABTS oxidation kinetics, non-linear Michaelis-Menten fit on TvL

SMILES strings stand for the structures.

Turning to `CCn1c(=NN=c2sc3cc(S(=O)(=O)O)ccc3n2CC)sc2cc(S(=O)(=O)O)ccc21` [ABTS, 2,2′-azino-bis(3-ethylbenzthiazoline-6-sulphonic acid)], the Km was determined as 42.1 ± 3.14 µM.

(Values after article PMC10222279, “Detection of Acetaminophen in Groundwater by Laccase-Based Amperometric Biosensors Using MoS2 Modified Carbon Paper Electrodes” (Sensors (Basel, Switzerland), 2023).)
